{
  "source": "paper PMC11267282",
  "about": "“Ultrashort‐Peptide‐Responsive Gene Switches for Regulation of Therapeutic Protein Expression in Mammalian Cells” (Advanced Science, 2024)",
  "key": {"HEK-293T cells [1]": {"test_system": "HEK-293T cells", "experiment": "Cell growth kinetics of HEK-293 cells", "format": "cell-based, human", "conditions": "non-transformed HEK-293T, 10-250 µM, 48 h, n = 4", "experimental": "(§1) HEK‐293T cells were seeded in a 10 cm diameter dish at a density of 2.5 × 10^5 cells/ml. After 24 h of culture, the cells were transfected with 35 µg of pJH3 (PhCMV‐SEAP‐pA) overnight, then resuspended and evenly distributed into two 24‐well plates. The treatment groups were treated with XIP at the indicated concentration. Samples were collected at successive time points for two days to quantify viable cells and SEAP production."}, "[2]": {"experiment": "Membrane penetration inferred from intracellular gene switch activation", "format": "in vitro ADME", "conditions": "HEK-293T with intracellular ComR switch; inferred from SEAP induction", "experimental": "Human embryonic kidney cells (HEK‐293T, ATCC: CRL‐11268), human telomerase‐immortalized mesenchymal stem cells (hMSC‐TERT),^[ [56] ^] human fibrosarcoma cells (HT‐1080, ATCC: CCL‐121), human cervical adenocarcinoma cells (HeLa, ATCC: CCL‐2), Chinese hamster ovary cells (CHO‐K1, ATCC: CCL‐61), baby hamster kidney cells (BHK‐21, ATCC: CCL‐10), and human liver cancer cells (Hep G2, ATCC: CRL‐11997) were cultured in Dulbecco's modified Eagle's medium (DMEM, cat. no. 52100–39, Thermo Fisher Scientific) containing 10% fetal bovine serum (FBS, cat. no. F7524, lot no. 022M3395, Sigma‐Aldrich) and 1% (v/v) streptomycin/penicillin (cat. no. L0022, Biowest). All mammalian cells were grown at 37 °C in a humidified atmosphere containing 5% CO2. For all transient transfections, 15 000 cells were seeded per well of a 96‐well plate (cat. no. 3599, Corning Inc. Life Sciences) overnight. Cells were transfected by mixing 100 ng of DNA and polyethyleneimine (PEI, 24765‐2, Polysciences) in a ratio of 1:4. […] The cell density was calculated using a cell counter (CellDrop BF Brightfield Cell Counter, DeNovix Inc.)\nSEAP reporter levels in cell culture supernatants were quantified using a colorimetric assay. […] Absorbance at 405 nm was recorded using a plate reader (Tecan Spark, Tecan Group Ltd., Switzerland) for 30 min at 37 °C to determine the SEAP levels."}, "HEK-293T cells [3]": {"test_system": "HEK-293T cells", "experiment": "Constitutive recombinant SEAP production (pJH3)", "format": "cell-based, human", "conditions": "pJH3-transfected, 10-250 µM, 48 h, n = 4", "experimental": "as §1\nSEAP reporter levels in cell culture supernatants were quantified using a colorimetric assay. In brief, 20 µl of cell culture supernatant was mixed with 80 µl of PBS buffer (cat. no. 14190144, ThermoFisher) and heat‐inactivated at 65 °C for 30 min. Then 80 µl of 2x SEAP assay buffer (20 mM homoarginine, 1 mM MgCl2, 21% diethanolamine, pH 9.8) was mixed with 20 µl of substrate solution, and 100 µl of the buffer‐substrate mixture was added to 100 µl of the diluted heat‐inactivated sample. Absorbance at 405 nm was recorded using a plate reader (Tecan Spark, Tecan Group Ltd., Switzerland) for 30 min at 37 °C to determine the SEAP levels."}, "[4]": {"test_system": "T1D mice with HEK-XIP implants", "experiment": "Serum inflammatory cytokines (ELISA)", "format": "in vivo, mouse", "conditions": "four weeks after implantation, n = 5", "experimental": "The concentrations of interferon gamma (IFN‐γ), interleukin‐6 (IL‐6), and tumor necrosis factor alpha (TNF‐α) in mouse serum were assessed by the use of specific enzyme‐linked immunosorbent assay (ELISA) kits. IFN‐γ levels were analyzed using the IFN gamma mouse ELISA kit (cat. no. ab282874, Abcam), IL‐6 levels were determined with the IL‐6 mouse ELISA kit (cat. no. ab100712, Abcam), and TNF‐α levels were quantified utilizing the TNF alpha mouse ELISA kit (cat. no. BMS607HS, ThermoFisher). Freund's Complete Adjuvant (cat. no.: 344289, Sigma‐Aldrich) and lipopolysaccharides (cat. no.: L2630‐10MG, Sigma‐Aldrich) were utilized to induce cytokine production as positive controls. Blood samples were collected from mice treated with adjuvant and LPS 24 hours post‐treatment. The quantification of cytokines from these groups was conducted using the same ELISA kit."}, "[5]": {"test_system": "CD4 / CD8 T cells of immunized mice", "experiment": "T-cell response, intracellular cytokine staining", "format": "in vivo, mouse", "conditions": "FACS intracellular cytokine staining, spleen and draining lymph nodes, n = 3", "experimental": "Mice were immunized at 2‐week intervals.\nIsolated lymphocytes from spleens and lymph nodes were placed in a U‐bottom 96‐well plate and resuspended in 100 µl complete RPMI‐1640 medium, which contains FBS (10% v/v), HEPES (pH 7.2∼7.5, 1% v/v, Gibco), penicillin/streptomycin (1% v/v, Gibco), sodium pyruvate (1% v/v, Gibco) and 2‐mercaptoethanol (0.1% v/v, Gibco). Cells were stimulated with 1 µM cognate peptides or with Cell Stimulation Cocktail (a cocktail of phorbol 12‐myristate 13‐acetate (PMA) and ionomycin, Invitrogen) as positive controls at 37 °C for 4 h, in the presence of 10 µM brefeldin A (MedChemExpress) to inhibit cytokine secretion. Next, the cells were washed with 150 µl FACS buffer, and centrifuged with 1,500 g for 2 min. The supernatant was discarded and the cells were blocked with anti‐CD16/32 antibody (1:100, 93, 101302, BioLegend) in 20 µl/well FACS buffer at 4 °C for 15 min. Then 20 µl/well antibody cocktail containing anti‐CD3ε (1:500, 17A2, 100306, BioLegend), anti‐CD4 (1:500, RM4‐5, 100526, BioLegend), anti‐CD8β (1:500, YTS256.7.7, 126606, BioLegend), and anti‐CD45 (1:500, S18009F, 157211, BioLegend) was added to the cell mixture for 20 min incubation at 4 °C. […] Gate margins were determined on the basis of isotype controls and fluorescence‐minus‐one controls."}, "[6]": {"test_system": "engineered mammalian cells", "experiment": "Resazurin-based cell viability assay", "experimental": "Cells were incubated with resazurin (cat. no. R7017, Sigma‐Aldrich, USA) at a concentration of 50 µg ml^−1 for 2 h. Then fluorescence was assayed with a plate reader (Tecan Spark, Tecan Group Ltd., Switzerland) at excitation and emission wavelengths of 540 and 590 nm, respectively. The fluorescence intensity of non‐induced cells was set to 100%."}, "C57BL/6 mice": {"test_system": "C57BL/6 mice", "experiment": "Antibody analysis for peptide immunogenicity", "conditions": "s.c., three doses of 5 mg kg−1 at two-week intervals, with Freund's adjuvant, OD450, n = 3", "method": "Eight‐week‐old wild‐type male mice were immunized for peptide immunogenicity assessments. Briefly, peptide solution was premixed 1:1 with Freund's adjuvant in a total volume of 400 µl by thorough vigorous shaking. Then peptide/adjuvant mixes were injected subcutaneously in 30 min at a dose of 5 mg kg^−1. Mice were immunized at 2‐week intervals. Negative controls (mock‐immunized) were also included in the study. One week after the third dose of immunization, blood was sampled for antibody analysis.\nFor antibody analysis, the peptides were coated on the EIA/RIA plate (cat. no. 3590, Corning Inc. Life Sciences) in carbonate coating buffer (cat. no. CB01100, ThermoFisher) at 4 °C overnight. The next day the plate was blocked with 20% nonfat milk (cat. no. A0830,1000, AppliChem Panreac) for 24 h at 4 °C, and incubated with antibodies at the indicated dilution or at 37 °C for 1 h. Next, horseradish peroxidase‐linked anti‐mouse IgG (cat. no. LNA931V, GE Healthcare, USA) was added to the plate at a dilution of 1:1000 for 1 h at 37 °C. Between each step, the plate was washed with PBS at least three times. Then, 100 µl ultra TMB substrate solution (cat. no. 34028, ThermoFisher) was added to the plate at room temperature for 15 min, followed by the addition of 50 µl of stop solution (2 M H2SO4). The OD450 was measured by a plate reader (Tecan Spark, Tecan Group Ltd., Switzerland). Mouse anti‐HA antibody (cat. no. 901523, BioLegend, USA, 1:1000 dilution) was used as a positive control."}},
  "note": "“Also recorded” adds a separate entry of the source. Where a SMILES comes first, the peptide text is derived from it.",
  "data": [
    {"smiles": "CC[C@H](C)[C@H](NC(=O)[C@H](CCSC)NC(=O)[C@H](Cc1ccccc1)NC(=O)[C@H](Cc1ccccc1)NC(=O)[C@@H]1CCCN1C(=O)[C@@H](N)C(C)C)C(=O)N[C@@H](Cc1ccc(O)cc1)C(=O)N[C@@H](Cc1ccc(O)cc1)C(=O)O", "note": "[XIP, sigX/comX-inducing peptide] (H-VPFFMIYY-OH)", "values": [
      {"measurement": "Effect on growth kinetics", "setting": "HEK-293T cells [1]", "result": "ns and negligible effect"},
      {"measurement": "Membrane penetration", "setting": "[2]", "result": "penetration ability across the mammalian cell membrane; also recorded: efficiently traverses the mammalian cell membrane"},
      {"measurement": "Effect on constitutive SEAP production", "setting": "HEK-293T cells [3]", "result": "ns and negligible effect"},
      {"measurement": "Serum IFN-γ (significance)", "setting": "[4]; vs non-induced", "result": "ns"},
      {"measurement": "Serum TNF-α (significance)", "setting": "[4]; vs non-induced", "result": "ns"},
      {"measurement": "Serum IL-6", "setting": "[4]; undetectable", "result": "Below 0.82 pg/ml"},
      {"measurement": "Peptide-specific T-cell response", "setting": "[5]", "result": "no peptide‐specific T‐cell response was detected"},
      {"measurement": "Cell viability under overstimulation", "setting": "[6]; ComREXTRA-expressing HEK-293T, 50/200/500 µmol/L, 24 h, n = 4", "result": "ns and no significant difference of cell viability"},
      {"measurement": "Cytotoxicity (result in words)", "setting": "[6]; HEK-293T / HEK-XIP / mammalian cells, concentration range tested", "result": "no significant impact on cell viability"},
      {"measurement": "Cell viability (significance)", "setting": "[6]; engineered HEK-293T, ComR operator variants, 150 and 500 µmol/L, n = 4", "result": "ns"},
      {"measurement": "Cell viability (significance)", "setting": "[6]; seven cell lines expressing ComREXTRA-based system, 250 μM, n = 4", "result": "ns"},
      {"measurement": "Cell viability (significance)", "setting": "[6]; seven cell lines with first system (HEK-293T, hMSC-TERT, HT-1080, HeLa, CHO-K1, BHK21, HepG2), 250 μM, n = 4", "result": "ns"},
      {"measurement": "Antibody response", "setting": "C57BL/6 mice", "result": "no detectable antibodies’ response"},
      {"measurement": "Antibody response", "setting": "C57BL/6 mice; listed as XIP_WT", "result": "ns"}
    ]}
  ]
}
